From the supplement of paper PMC10307832

Assays:
Test in all cases: relative viability (nuclei count vs DMSO), 5 days (fraction); higher = more cells survive
[1] = compound: O=c1[nH]cc(F)c(=O)[nH]1 [5-Fluorouracil] + CC(=O)c1c(C)c2cnc(Nc3ccc(N4CCNCC4)cn3)nc2n(C2CCCC2)c1=O [Palbociclib] (partner 0.5 µM)
Summary of the method: (§1)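 Values are medians from duplicate plates. Each reflects relative viability, defined as the nuclei count of treated wells over that of vehicle wells. Lung cancer cell lines in 1536-well plates were pin-tool dosed one day after seeding with one drug alone or with a fixed anchor-drug dose plus five library-drug doses (not always all listed) in √10 steps, then fixed, stained and imaged at 4× after 5 days.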

[2] = compound: O=c1[nH]cc(F)c(=O)[nH]1 [5-Fluorouracil] + Nc1nc2[nH]cc(CCc3ccc(C(=O)N[C@@H](CCC(=O)O)C(=O)O)cc3)c2c(=O)[nH]1 [Pemetrexed] (partner 0.2 µM)
Summary of the method: as §1

[3] = compound: CN[C@@H]1C[C@H]2O[C@@](C)([C@@H]1OC)n1c3ccccc3c3c4c(c5c6ccccc6n2c5c31)C(=O)NC4 [Staurosporine] + C[C@]1(O)C[C@@H](c2nc(-c3ccc4ccc(-c5ccccc5)nc4c3)c3c(N)nccn32)C1 [Linsitinib] (partner 1 µM)
Summary of the method: as §1

[4] = compound: CN[C@@H]1C[C@H]2O[C@@](C)([C@@H]1OC)n1c3ccccc3c3c4c(c5c6ccccc6n2c5c31)C(=O)NC4 [Staurosporine] + CS(=O)(=O)N1CCN(Cc2cc3nc(-c4cccc5[nH]ncc45)nc(N4CCOCC4)c3s2)CC1 [Pictilisib] (partner 1 µM)
Summary of the method: as §1

Cell Line | relative viability ([1]; first compound 0.02 µM) | relative viability ([1]; first compound 0.2 µM) | relative viability ([1]; first compound 0.6325 µM) | relative viability ([1]; first compound 2 µM) | relative viability ([2]; first compound 0.02 µM) | relative viability ([2]; first compound 0.2 µM) | relative viability ([2]; first compound 0.6325 µM) | relative viability ([2]; first compound 2 µM) | relative viability ([3]; first compound 0.005 µM) | relative viability ([3]; first compound 0.01581 µM) | relative viability ([3]; first compound 0.05 µM) | relative viability ([3]; first compound 0.1581 µM) | relative viability ([3]; first compound 0.5 µM) | relative viability ([4]; first compound 0.005 µM) | relative viability ([4]; first compound 0.01581 µM) | relative viability ([4]; first compound 0.05 µM) | relative viability ([4]; first compound 0.1581 µM) | relative viability ([4]; first compound 0.5 µM)
HOP-62 | 0.409 | 0.573 | 0.404 | 0.439 | 0.323 | 0.361 | 0.287 | 0.342 | 1.07 | 0.604 | 0.117 | 0.111 | 0.108 | 0.182 | 0.0895 | 0.0986 | 0.0751 | 0.0641
HCC-366 | 0.404 | 0.332 | 0.154 | 0.0646 | 0.142 | 0.145 | 0.0984 | 0.123 | 0.623 | – | 0.0843 | 0.0298 | 0.013 | 0.106 | 0.0757 | 0.0691 | 0.0727 | 0.0401
NCI-H2405 | 0.541 | 0.579 | 0.529 | 0.48 | 1.11 | 1.12 | 1.07 | 0.535 | 0.214 | 0.127 | 0.113 | 0.0901 | 0.0874 | 0.284 | 0.135 | 0.103 | 0.0688 | 0.064
LXF-289 | 0.596 | 0.578 | 0.312 | 0.283 | 0.807 | 0.704 | 0.494 | 0.363 | 0.846 | – | 0.203 | 0.1 | 0.0809 | 0.48 | – | 0.111 | 0.0648 | 0.0482
NCI-H1793 | 0.285 | 0.299 | 0.274 | 0.243 | 0.944 | 0.942 | 0.695 | 0.503 | 0.879 | 0.558 | 0.582 | 0.465 | 0.209 | 0.534 | 0.248 | 0.277 | 0.191 | –
NCI-H1734 | 0.349 | 0.346 | 0.271 | 0.264 | 0.419 | 0.412 | 0.401 | 0.45 | 0.849 | 0.473 | 0.294 | 0.228 | 0.164 | 0.317 | 0.175 | 0.174 | 0.105 | 0.0965
LU99A | 0.441 | 0.419 | 0.361 | 0.257 | 0.185 | 0.177 | 0.154 | 0.171 | 0.441 | 0.212 | 0.201 | 0.182 | 0.14 | 0.187 | 0.158 | 0.186 | 0.122 | 0.114
RERF-LC-KJ | 1.06 | 0.991 | 0.891 | 0.677 | 0.483 | 0.507 | 0.531 | 0.495 | 0.895 | 0.804 | 0.431 | 0.213 | 0.166 | 0.565 | 0.308 | 0.284 | 0.151 | 0.141
NCI-H2087 | 0.234 | 0.243 | 0.164 | 0.179 | 0.624 | 0.593 | 0.609 | 0.588 | 0.71 | 0.712 | 0.356 | 0.296 | 0.153 | 0.833 | 0.435 | 0.313 | 0.165 | 0.138
